Experimental findings from PubChem BioAssay (NCI) are described below.

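1) Cells in 96-well plates. 2) Compound, 48 h, 5 concentrations. 3) Linear interpolation between surrounding doses. 4) Unreached endpoint = highest concentration. Abbreviation: GI50, concentration required for 50% inhibition of growth. Definition used: TGI = concentration required for complete inhibition of growth.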 Where only a bound is given, the exact number is not on record here.

Some test systems named below: UO-31 renal; SK-MEL-5 melanoma; HL-60(TB) leukemia; SW-620 colon; MDA-MB-435; HCC-2998 colon; EKVX NSCLC; SK-MEL-2 melanoma; OVCAR-3 ovarian; SF-295 CNS.
Holding throughout (assay): NCI-60 cell line screen, 48 h

On to `COc1ccc(-c2cc(-c3ccc(Nc4nc(Nc5ccc(Cl)cc5)nc(Nc5ccc(Cl)cc5)n4)cc3)nc(N)c2C#N)cc1`, for which the GI50 was 1.57 µM in the test on UO-31 renal; 1.78 µM in the test on SK-MEL-5 melanoma; 0.866 µM with HL-60(TB) leukemia; 0.666 µM in the test with SW-620 colon; 2.22 µM in the test with MDA-MB-435; 1.85 µM with HCC-2998 colon. Also, the GI50 in the test with EKVX NSCLC was 8.16 µM; with SK-MEL-2 melanoma, 1.66 µM; in the test on OVCAR-3 ovarian, 1.68 µM; with SF-295 CNS, 1.68 µM. The TGI in the test with UO-31 renal stood at 3.26 µM; in the test on SK-MEL-5 melanoma, 3.65 µM; with HL-60(TB) leukemia, 4.59 µM; in the test on SW-620 colon, 1.37 µM; in the test on MDA-MB-435, 7.53 µM; in the test with HCC-2998 colon, 4.55 µM. Moreover, the TGI is above 21.9 µM with EKVX NSCLC, 3.2 µM in the test on SK-MEL-2 melanoma, 3.18 µM in the test on OVCAR-3 ovarian and 13.4 µM with SF-295 CNS.
With `COC(=O)c1cnc(=O)n(C2CC(O)C(CO)O2)c1` (centres undefined), the GI50 in the test with UO-31 renal, in the test with SK-MEL-5 melanoma, with HL-60(TB) leukemia, with SW-620 colon, with MDA-MB-435 and with HCC-2998 colon was above 100 µM throughout. Moreover, the GI50 with EKVX NSCLC, in the test on SK-MEL-2 melanoma, with OVCAR-3 ovarian and in the test on SF-295 CNS was above 100 µM throughout. Besides, the TGI in the test with UO-31 renal, in the test on SK-MEL-5 melanoma, in the test on HL-60(TB) leukemia, with SW-620 colon, in the test with MDA-MB-435 and in the test with HCC-2998 colon was above 100 µM in each case. Also, the TGI in the test with EKVX NSCLC, with SK-MEL-2 melanoma, with OVCAR-3 ovarian and in the test with SF-295 CNS was above 100 µM throughout.
Take `Nc1ccn(C=C=CCO)c(=O)n1`: the GI50 in the test on UO-31 renal, in the test on SK-MEL-5 melanoma, in the test on SW-620 colon, with MDA-MB-435, in the test on HCC-2998 colon and with EKVX NSCLC was above 1000 µM in each case. Moreover, the GI50 with SK-MEL-2 melanoma, with OVCAR-3 ovarian and in the test on SF-295 CNS was above 1000 µM in each case. Also, the TGI was above 1000 µM in the test with UO-31 renal; above 1000 µM with SK-MEL-5 melanoma; 435 µM in the test on HL-60(TB) leukemia; above 1000 µM in the test with SW-620 colon; above 1000 µM in the test on MDA-MB-435; above 1000 µM in the test on HCC-2998 colon. Further, the TGI with EKVX NSCLC, with SK-MEL-2 melanoma, in the test on OVCAR-3 ovarian and in the test with SF-295 CNS was above 1000 µM throughout.
On to `O=C(c1cccs1)c1c(C(F)(F)F)n([O-])c2ccc(C(F)(F)F)cc2[n+]1=O`, for which the GI50 with UO-31 renal was 0.169 µM; in the test with SK-MEL-5 melanoma, 0.483 µM; in the test with HL-60(TB) leukemia, 0.145 µM; with SW-620 colon, 0.162 µM; in the test with MDA-MB-435 it was 0.564 µM; with HCC-2998 colon it was 0.647 µM. Further, the GI50 in the test with EKVX NSCLC is 0.241 µM; with SK-MEL-2 melanoma, 0.785 µM; with OVCAR-3 ovarian it was 0.258 µM; in the test on SF-295 CNS it was 0.464 µM. The TGI in the test on UO-31 renal came to 0.318 µM; in the test on SK-MEL-5 melanoma it was 0.914 µM; in the test on HL-60(TB) leukemia, 0.526 µM; with SW-620 colon it was 0.325 µM; with MDA-MB-435, 1.19 µM; in the test with HCC-2998 colon, 1.28 µM. Also, the TGI was found to be 0.529 µM with EKVX NSCLC, 1.85 µM in the test with SK-MEL-2 melanoma, 0.744 µM with OVCAR-3 ovarian and 1 µM in the test on SF-295 CNS.
For `Cc1ccc(S(=O)(=O)NC(CCC(=O)Nc2ccc(Cl)cc2)C(=O)Nc2ccc(Cl)cc2)cc1` (centres undefined), the GI50 in the test on UO-31 renal was 0.401 µM; in the test with SK-MEL-5 melanoma it was 0.235 µM; in the test on HL-60(TB) leukemia it was 0.369 µM; with SW-620 colon, 0.555 µM; with MDA-MB-435, 0.169 µM; with HCC-2998 colon, 1.48 µM. For the same compound, the GI50 was 2.01 µM in the test on EKVX NSCLC, 0.57 µM in the test with SK-MEL-2 melanoma, 0.93 µM with OVCAR-3 ovarian and 0.187 µM in the test with SF-295 CNS. Besides, the TGI was 7.28 µM in the test on UO-31 renal; 3.94 µM in the test with SK-MEL-5 melanoma; 5.76 µM in the test on HL-60(TB) leukemia; 8.59 µM with SW-620 colon; 9.74 µM in the test on MDA-MB-435; 7.14 µM with HCC-2998 colon. Moreover, the TGI in the test with EKVX NSCLC came to 9.31 µM; in the test on SK-MEL-2 melanoma, 6.64 µM; in the test on OVCAR-3 ovarian it was 5.8 µM; in the test on SF-295 CNS, 0.956 µM.
Regarding `O=C1c2ccccc2-c2c1c1ccccc1c(=O)n2CCO`, the TGI in the test on UO-31 renal was above 81 µM; in the test with SK-MEL-5 melanoma, 33.1 µM; with HL-60(TB) leukemia, 7.29 µM; in the test with SW-620 colon it was above 100 µM; in the test with MDA-MB-435, above 100 µM; in the test on HCC-2998 colon, above 100 µM. Further, the TGI with EKVX NSCLC was above 100 µM; in the test with SK-MEL-2 melanoma it was 87.2 µM; in the test with OVCAR-3 ovarian, above 100 µM; with SF-295 CNS, above 96.3 µM.
Take `O=C1C=C[C@]2(C[C@@H](c3cccc(C(F)(F)F)c3)O[C@@H](c3cccc(C(F)(F)F)c3)O2)O1`: the GI50 was 1.84 µM with UO-31 renal; 1.8 µM in the test with SK-MEL-5 melanoma; 1.88 µM with HL-60(TB) leukemia; 1.76 µM in the test on SW-620 colon; 1.6 µM with MDA-MB-435; 1.63 µM with HCC-2998 colon. In addition, the GI50 in the test on EKVX NSCLC is 12.9 µM; in the test with SK-MEL-2 melanoma, 2.21 µM; with OVCAR-3 ovarian, 1.6 µM; with SF-295 CNS, 4.18 µM. Moreover, the TGI in the test on UO-31 renal was 5.08 µM; with SK-MEL-5 melanoma, 3.72 µM; in the test on HL-60(TB) leukemia, 8.34 µM; in the test with SW-620 colon, 5.14 µM; in the test with MDA-MB-435 it was 3.39 µM; in the test on HCC-2998 colon it was 3.18 µM. The TGI with EKVX NSCLC was 27.7 µM; with SK-MEL-2 melanoma it was 6.54 µM; with OVCAR-3 ovarian, 3.71 µM; in the test with SF-295 CNS, 17.2 µM.
